Experimental findings from patent US8846719B2, “Isoxazolo-pyridine derivatives” (Roche Palo Alto LLC, priority 2007, dated 2014) are described below.

For this test, the target named is human GABA A receptor α5β3γ2 (Homo sapiens (Human), UniProt P18507+P31644). The test is described as follows: [3H]flumazenil competition binding assay, human GABA A α5β3γ2 receptors expressed in HEK293 cells. The following applies: human receptor; displacement of [3H]flumazenil (0.5 nM); means of two determinations; read-out: hKi GABAAa5. The gist of the method:
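Ki values, each the mean of two runs, derive from displacement of [3H]flumazenil from human α5β3γ2 GABA A receptors transiently expressed in HEK293 membranes. Binding ran 1 h at 4° C in Krebs-tris, pH 7.5, before filter harvest and scintillation counting.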
In general terms: In a radioligand displacement assay an active substance lowers the binding of a labelled ligand.
As for `Cc1onc(-c2ccc(Cl)cc2)c1COc1ccc(C(=O)O)cn1` [Example 116, 6-[3-(4-Chloro-phenyl)-5-methyl-isoxazol-4-ylmethoxy]-nicotinic acid], the Ki was determined as 22.3 nM.
Take `Cc1onc(-c2ccc(Cl)cc2)c1COc1ccc(C(=O)NCC(F)(F)F)cn1` [Example 117, 6-[3-(4-Chloro-phenyl)-5-methyl-isoxazol-4-ylmethoxy]-N-(2,2,2-trifluoro-ethyl)-nicotinamide]: the Ki amounted to 2.1 nM.
The same measure for `Cc1onc(-c2ccc(Cl)cc2)c1COc1ccc(C(=O)NCC2CC2)cn1` [Example 118, 6-[3-(4-Chloro-phenyl)-5-methyl-isoxazol-4-ylmethoxy]-N-cyclopropylmethyl-nicotinamide]: 1.3 nM.
The same measure for `Cc1onc(-c2ccc(Cl)cc2)c1COc1ccc(C(=O)NC(C)C)cn1` [Example 119, 6-[3-(4-Chloro-phenyl)-5-methyl-isoxazol-4-ylmethoxy]-N-isopropyl-nicotinamide]: 0.7 nM; for `Cc1onc(-c2ccc(Cl)cc2)c1COc1ccc(C(=O)NC2CC2)cn1` [Example 120, 6-[3-(4-Chloro-phenyl)-5-methyl-isoxazol-4-ylmethoxy]-N-cyclopropyl-nicotinamide]: 1.1 nM.
As for `Cc1onc(-c2ccc(Cl)cc2)c1COc1ccc(C(=O)NC2CCOCC2)cn1` [Example 121, 6-[3-(4-Chloro-phenyl)-5-methyl-isoxazol-4-ylmethoxy]-N-(tetrahydro-pyran-4-yl)-nicotinamide], the figure is 0.8 nM.
Regarding `Cc1onc(-c2ccc(Cl)cc2)c1COc1ccc(C(=O)N2CCS(=O)(=O)CC2)cn1` [Example 122, {6-[3-(4-Chloro-phenyl)-5-methyl-isoxazol-4-ylmethoxy]-pyridin-3-yl}-(1,1-dioxo-1,6-thiomorpholin-4-yl)-methanone], the Ki worked out at 2.9 nM.
As for `Cc1onc(-c2ccc(Cl)cc2)c1COc1ccc(C(=O)N2CCSCC2)cn1` [Example 124, {6-[3-(4-Chloro-phenyl)-5-methyl-isoxazol-4-ylmethoxy]-pyridin-3-yl}-thiomorpholin-4-yl-methanone], the figure is 7.5 nM.
The same measure for `Cc1onc(-c2ccc(F)c(F)c2)c1COc1ccc(C(=O)NCC(F)(F)F)cn1` [Example 125, 6-[3-(3,4-Difluoro-phenyl)-5-methyl-isoxazol-4-ylmethoxy]-N-(2,2,2-trifluoro-ethyl)-nicotinamide]: 2.7 nM; for `Cc1onc(-c2ccc(F)c(F)c2)c1COc1ccc(C(=O)NC(C)C)cn1` [Example 126, 6-[3-(3,4-Difluoro-phenyl)-5-methyl-isoxazol-4-ylmethoxy]-N-isopropyl-nicotinamide]: 4.7 nM; for `Cc1onc(-c2ccc(F)c(F)c2)c1COc1ccc(C(=O)NC2CCOCC2)cn1` [Example 127, 6-[3-(3,4-Difluoro-phenyl)-5-methyl-isoxazol-4-ylmethoxy]-N-(tetrahydro-pyran-4-yl)-nicotinamide]: 2.4 nM.
The same measure for `COC(=O)c1ccc(OCc2c(-c3ccccc3)noc2C(F)(F)F)nc1` [Example 128, 6-(3-Phenyl-5-trifluoromethyl-isoxazol-4-ylmethoxy)-nicotinic acid methyl ester]: 88.5 nM; for `CNC(=O)c1ccc(OCc2c(-c3ccccc3)noc2C(F)(F)F)nc1` [Example 129, N-Methyl-6-(3-phenyl-5-trifluoromethyl-isoxazol-4-ylmethoxy)-nicotinamide]: 24.3 nM.
`CCNC(=O)c1ccc(OCc2c(-c3ccccc3)noc2C(F)(F)F)nc1` [Example 130, N-Ethyl-6-(3-phenyl-5-trifluoromethyl-isoxazol-4-ylmethoxy)-nicotinamide]: the Ki stood at 30.8 nM.
As for `O=C(NCCO)c1ccc(OCc2c(-c3ccccc3)noc2C(F)(F)F)nc1` [Example 131, N-(2-Hydroxy-ethyl)-6-(3-phenyl-5-trifluoromethyl-isoxazol-4-ylmethoxy)-nicotinamide], the Ki came out at 34 nM.
As to `O=C(NCC1CC1)c1ccc(OCc2c(-c3ccccc3)noc2C(F)(F)F)nc1` [Example 132, N-Cyclopropylmethyl-6-(3-phenyl-5-trifluoromethyl-isoxazol-4-ylmethoxy)-nicotinamide], the Ki came out at 28.3 nM.
As for `CC(C)NC(=O)c1ccc(OCc2c(-c3ccccc3)noc2C(F)(F)F)nc1` [Example 133, N-Isopropyl-6-(3-phenyl-5-trifluoromethyl-isoxazol-4-ylmethoxy)-nicotinamide], the figure is 41.6 nM.
As for `O=C(NC1CC1)c1ccc(OCc2c(-c3ccccc3)noc2C(F)(F)F)nc1` [Example 134, N-Cyclopropyl-6-(3-phenyl-5-trifluoromethyl-isoxazol-4-ylmethoxy)-nicotinamide], the figure is 23.8 nM.
As to `O=C(NC1CCOCC1)c1ccc(OCc2c(-c3ccccc3)noc2C(F)(F)F)nc1` [Example 135, 6-(3-Phenyl-5-trifluoromethyl-isoxazol-4-ylmethoxy)-N-(tetrahydro-pyran-4-yl)-nicotinamide], the Ki came out at 22.1 nM.
As for `COC(=O)c1ccc(OCc2c(-c3ccc(F)cc3)noc2C(F)(F)F)nc1` [Example 136, 6-[3-(4-Fluoro-phenyl)-5-trifluoromethyl-isoxazol-4-ylmethoxy]-nicotinic acid methyl ester], the figure is 57 nM; as for `CNC(=O)c1ccc(OCc2c(-c3ccc(F)cc3)noc2C(F)(F)F)nc1` [Example 137, 6-[3-(4-Fluoro-phenyl)-5-trifluoromethyl-isoxazol-4-ylmethoxy]-N-methyl-nicotinamide], 19.8 nM.
As for `CCNC(=O)c1ccc(OCc2c(-c3ccc(F)cc3)noc2C(F)(F)F)nc1` [Example 138, N-Ethyl-6-[3-(4-fluoro-phenyl)-5-trifluoromethyl-isoxazol-4-ylmethoxy]-nicotinamide], the figure is 33.3 nM.
Turning to `O=C(NCCO)c1ccc(OCc2c(-c3ccc(F)cc3)noc2C(F)(F)F)nc1` [Example 139, 6-[3-(4-Fluoro-phenyl)-5-trifluoromethyl-isoxazol-4-ylmethoxy]-N-(2-hydroxy-ethyl)-nicotinamide], the Ki was 16.5 nM.
As for `O=C(NCC(F)(F)F)c1ccc(OCc2c(-c3ccc(F)cc3)noc2C(F)(F)F)nc1` [Example 140, 6-[3-(4-Fluoro-phenyl)-5-trifluoromethyl-isoxazol-4-ylmethoxy]-N-(2,2,2-trifluoro-ethyl)-nicotinamide], the figure is 57.8 nM.
For `O=C(NCC1CC1)c1ccc(OCc2c(-c3ccc(F)cc3)noc2C(F)(F)F)nc1` [Example 141, N-Cyclopropylmethyl-6-[3-(4-fluoro-phenyl)-5-trifluoromethyl-isoxazol-4-ylmethoxy]-nicotinamide], the Ki stood at 22.5 nM.
As for `CC(C)NC(=O)c1ccc(OCc2c(-c3ccc(F)cc3)noc2C(F)(F)F)nc1` [Example 142, 6-[3-(4-Fluoro-phenyl)-5-trifluoromethyl-isoxazol-4-ylmethoxy]-N-isopropyl-nicotinamide], the figure is 33.5 nM; as for `O=C(NC1CC1)c1ccc(OCc2c(-c3ccc(F)cc3)noc2C(F)(F)F)nc1` [Example 143, N-Cyclopropyl-6-[3-(4-fluoro-phenyl)-5-trifluoromethyl-isoxazol-4-ylmethoxy]-nicotinamide], 38.4 nM.
